Assay results taken from patent US20260285850A1, “SUBSTITUTED OXAZOLIDINONES AND IMIDAZOLINONES AS HERBICIDES” (FMC CORPORATION, priority 2023, published 2026).

Columns and labels:
Format in all cases: in vivo
[1] = system: barnyardgrass (Echinochloa crus-galli); test: Test A preemergence soil spray, visual injury rating 0-100; conditions: 10 days
Method in brief: (§1)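 Seeds sown in loam-sand blend got a preemergence directed soil spray, or emerged plants (2-10 cm, one- to two-leaf) got a postemergence spray, of compound in non-phytotoxic solvent with surfactant. After 10 days in greenhouse, injury rated visually versus untreated controls on a 0 (no effect) to 100 (complete control) scale.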

[2] = system: blackgrass (Alopecurus myosuroides); test: as above; conditions: 10 days
Method in brief: as §1

[3] = system: corn (Zea mays); test: as above; conditions: 10 days
Method in brief: as §1

[4] = system: green foxtail (Setaria viridis); test: as above; conditions: 10 days
Method in brief: as §1

[5] = system: kochia (Bassia scoparia); test: as above; conditions: 10 days
Method in brief: as §1

[6] = system: oat, wild (wild oat, Avena fatua); test: as above; conditions: 10 days
Method in brief: as §1

[7] = system: palmer (palmer amaranth, palmer pigweed, Amaranthus palmeri); test: as above; conditions: 10 days
Method in brief: as §1

[8] = system: ragweed (common ragweed, Ambrosia artemisiifolia); test: as above; conditions: 10 days
Method in brief: as §1

[9] = system: ryegrass, Italian (italian ryegrass, Lolium multiflorum); test: as above; conditions: 10 days
Method in brief: as §1

[10] = system: soybean (Glycine max); test: as above; conditions: 10 days
Method in brief: as §1

[11] = system: wheat (Triticum aestivum); test: as above; conditions: 10 days
Method in brief: as §1

[12] = system: barnyardgrass (Echinochloa crus-galli); test: Test A postemergence application, visual injury rating 0-100
Method in brief: as §1

[13] = system: blackgrass (Alopecurus myosuroides); test: as above
Method in brief: as §1

[14] = system: corn (Zea mays); test: as above
Method in brief: as §1

[15] = system: green foxtail (Setaria viridis); test: as above
Method in brief: as §1

[16] = system: horseweed (Erigeron canadensis); test: as above
Method in brief: as §1

[17] = system: kochia (Bassia scoparia); test: as above
Method in brief: as §1

[18] = system: oat, wild (wild oat, Avena fatua); test: as above
Method in brief: as §1

[19] = system: palmer (palmer amaranth, palmer pigweed, Amaranthus palmeri); test: as above
Method in brief: as §1

[20] = system: ragweed (common ragweed, Ambrosia artemisiifolia); test: as above
Method in brief: as §1

[21] = system: ryegrass, Italian (italian ryegrass, Lolium multiflorum); test: as above
Method in brief: as §1

[22] = system: soybean (Glycine max); test: as above
Method in brief: as §1

[23] = system: wheat (Triticum aestivum); test: as above
Method in brief: as §1

[24] = system: barnyardgrass (Echinochloa crusgalli); test: Test B flooded paddy test, visual plant response rating 0-100; conditions: 250 g ai/ha, Flood, applied to paddy water, evaluated after 13 days
Method in brief: (§2)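 Visual scores versus untreated controls were recorded 13 days after treatment of greenhouse-held plants. At the 2-leaf stage, pots were flooded 3 cm above the soil surface and compounds added straight to the water.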

[25] = system: ducksalad (Heteranthera limosa); test: as above; conditions: 250 g ai/ha, Flood, applied to paddy water, evaluated after 13 days
Method in brief: as §2

[26] = system: rice (Oryza sativa); test: as above; conditions: 250 g ai/ha, Flood, applied to paddy water, evaluated after 13 days
Method in brief: as §2

[27] = system: sedge, umbrella (small-flower umbrella sedge, Cyperus difformis); test: as above; conditions: 250 g ai/ha, Flood, applied to paddy water, evaluated after 13 days
Method in brief: as §2

[28] = 62 g ai/ha, 0 = no effect, 100 = complete control
[29] = 62 g ai/ha, postemergence, 10 days, 0 = no effect, 100 = complete control
[30] = Postemergence, 16 g ai/ha, greenhouse 10 days, 0 no effect, 100 complete control

COC(=O)COC(=O)C1=CCC(NC(=O)C2(C)CN(c3cc(F)cc(F)c3)C(=O)O2)C1 (centres unmarked) [Compound 108]
Barnyardgrass plant response rating ([1]; 16 g ai/ha, 0 to 100 scale): 20
Barnyardgrass plant response rating (0-100) [1, 28]: 100
Blackgrass plant response rating ([2]; 16 g ai/ha, 0 to 100 scale): 0
Blackgrass plant response rating (0-100) [2, 28]: 30
Corn plant response rating ([3]; 16 g ai/ha, 0 to 100 scale): 30
Corn plant response rating (0-100) [3, 28]: 60
Foxtail, Green plant response rating ([4]; 16 g ai/ha, 0 to 100 scale): 30
Foxtail, Green plant response rating (0-100) [4, 28]: 100
Kochia plant response rating ([5]; 16 g ai/ha, 0 to 100 scale): 0
Kochia plant response rating (0-100) [5, 28]: 50
Oat, Wild plant response rating ([6]; 16 g ai/ha, 0 to 100 scale): 0
Oat, Wild plant response rating (0-100) [6, 28]: 70
Pigweed, Palmer plant response rating ([7]; 16 g ai/ha, 0 to 100 scale): 30
Pigweed, Palmer plant response rating (0-100) [7, 28]: 90
Ragweed plant response rating ([8]; 16 g ai/ha, 0 to 100 scale): 0
Ragweed plant response rating (0-100) [8, 28]: 0
Ryegrass, Italian plant response rating ([9]; 16 g ai/ha, 0 to 100 scale): 70
Ryegrass, Italian plant response rating (0-100) [9, 28]: 90
Soybean plant response rating ([10]; 16 g ai/ha, 0 to 100 scale): 0
Soybean plant response rating (0-100) [10, 28]: 10
Wheat plant response rating ([11]; 16 g ai/ha, 0 to 100 scale): 90
Wheat plant response rating (0-100) [11, 28]: 90
Barnyardgrass plant response rating (0-100) [12, 29]: 100
Barnyardgrass plant response rating (0 to 100 scale) [12, 30]: 90
Blackgrass plant response rating (0-100) [13, 29]: 90
Blackgrass plant response rating (0 to 100 scale) [13, 30]: 70
Corn plant response rating (0-100) [14, 29]: 100
Corn plant response rating (0 to 100 scale) [14, 30]: 100
Foxtail, Green plant response rating (0-100) [15, 29]: 90
Foxtail, Green plant response rating (0 to 100 scale) [15, 30]: 60
Horseweed plant response rating (0-100) [16, 29]: 70
Horseweed plant response rating (0 to 100 scale) [16, 30]: 30
Kochia plant response rating (0-100) [17, 29]: 90
Kochia plant response rating (0 to 100 scale) [17, 30]: 80
Oat, Wild plant response rating (0-100) [18, 29]: 80
Oat, Wild plant response rating (0 to 100 scale) [18, 30]: 30
Pigweed, Palmer plant response rating (0-100) [19, 29]: 90
Pigweed, Palmer plant response rating (0 to 100 scale) [19, 30]: 70
Ragweed plant response rating (0-100) [20, 29]: 40
Ragweed plant response rating (0 to 100 scale) [20, 30]: 20
Ryegrass, Italian plant response rating (0-100) [21, 29]: 80
Ryegrass, Italian plant response rating (0 to 100 scale) [21, 30]: 60
Soybean plant response rating (0-100) [22, 29]: 70
Soybean plant response rating (0 to 100 scale) [22, 30]: 60
Wheat plant response rating (0-100) [23, 29]: 90
Wheat plant response rating (0 to 100 scale) [23, 30]: 50
Plant response rating, Barnyardgrass (0 to 100 scale, 0 is no effect and 100 is complete control) [24]: 50
Plant response rating, Ducksalad (0 to 100 scale, 0 is no effect and 100 is complete control) [25]: 70
Plant response rating, Rice (0 to 100 scale, 0 is no effect and 100 is complete control) [26]: 85
Plant response rating, Sedge, Umbrella (0 to 100 scale, 0 is no effect and 100 is complete control) [27]: 70
